Laboratory results published in patent publication US20230302031A1, “Modulators Of Purinergic Receptors and Related Immune Checkpoint For Treating Acute Respiratory Distress Syndrome” (priority 2020, published 2023).

What was measured:
[1] = test system: human monocyte derived macrophages (MDMs); test: IL-1β release from monocyte derived macrophages (MDMs); format: cell-based; details: 100 μM, FIG. 6G
[2] = test system: PMA-differentiated THP1 macrophages; test: LDH release from PMA-differentiated THP1 macrophages; format: cell-based, human; details: treated or not with LPS and ATP; FIG. 5H
[3] = test system: MDMs; test: IRF5 expression in MDMs (western blot); format: cell-based, human; details: FIG. 6N
[4] = test system: MDMs; test: IL-10 secretion by MDMs; format: cell-based, human; details: 100 μM, FIG. 6K
[5] = test system: MDMs; format: cell-based, human; details: FIG. 6L, 6M
[6] = test system: PMA-treated THP1 macrophages; test: IL-10 secretion by PMA-treated THP1 macrophages; format: cell-based, human; details: 100 μM, FIG. 6J
Protocol: (§1) Plasma serum from P2y2^+/+ and P2y2^−/− mice and supernatants harvested from PMA-stimulated THP1 macrophages that were depleted or not for P2Y2 or NLRP3, and/or stimulated with 10 ng/mL LPS during 3 hours and 5 mM ATP during 6 hours or with 20 ng/mL IFNγ, in presence or in absence of 100 μM Suramin, 100 μM OxATP, 100 μM Kaempferol or 100 μM Diquafosol at indicated times were analyzed using western blot or ELISA for IL-1β (Ebioscience) and IL-10 (BD) according to the manufacturers' instructions.

[7] = test system: PMA-treated THP1 macrophages; test: IL-1β release from LPS+ATP-stimulated PMA-THP1 macrophages (western blot/ELISA); format: cell-based, human; details: 100 μM compound; 10 ng/mL LPS 3 hours + 5 mM ATP 6 hours; FIG. 6E, 6I
Protocol: Human THP-1 cells were cultured in RPMI 1640 media, supplemented with 10% FBS and differentiated by treatment for 3 hours with 100 nM phorbol-12-myristate-13-acetate (PMA, Invivogen). After 2 days, macrophage THP-1 cells were stimulated first 3 hours with ultrapure LPS from E. coli (10 ng/ml, LPS) and then stimulated for 6 hours with ATP (5 mM, Sigma) or treated with 50 ng or 20 ng of IFNg during 24 or 12 hours as indicated. Then, supernatants and cells were collected for western blot analysis.
Cells or supernatant were lysed in appropriated buffer (250 mM NaCl, 0.1% NP-40, 5 mM EDTA, 10 mM Na3VO4, 10 mM NaF, 5 mM DTT, 3 mM Na4P2O7, 1 mM EGTA, 10 mM Glycerol phosphate, 10 mM Tris-Hcl (pH=7.5) and the protease and phosphatase inhibitors (Roche)). Equal amount of supernatant or 10-40 μg of protein extracts were run on 4-12% or 10% SDS-PAGE and transferred at 4° C. onto a nitrocellulose membrane (0.2 Micron). After incubation for 2 hours at room temperature with 5% nonfat milk or BSA (Bovine Serum Albumine) in Tris-buffered saline and 0.1% Tween 20 (TBS-Tween), membranes were incubated with primary antibody at 4° C. overnight. […] The primary antibodies against. […] Western blots shown are representative of at least of three independent experiments.
as §1

[8] = test system: MDMs; test: Microarray of human macrophage polarization-specific markers in MDMs; format: cell-based; details: 100 μM, 72 hours, FIG. 6Q
Protocol: MDMS were treated with 100 μM Kaempferol during 72 hours. Then, mRNAs were isolated using RNeasy kit (#74104, Quiagen) and gene expression analyses were performed with Agilent® SurePrint G3 Human GE 8x60K Microarray (Agilent Technologies, AMADID 39494) with the following single-color design. RNAs were labeled with Cy3 using the one-color Agilent labeling kit (Low Input Quick Amp Labeling Kit 5190-2306) adapted for small amount of total RNA (100 ng total RNA per reaction). Hybridization were then performed on microarray using 800 ng of linearly amplified cRNA labeled, following the manufacturer protocol (Agilent SureHyb Chamber; 800 ng of labeled extract; duration of hybridization of 17 hours; 40 μL per array; Temperature of 65° C.). […] Microarray images were analyzed by means of Feature Extraction software version (10.7.3.1) from Agitent technologies. […]
Raw data files from Feature Extraction were imported into R with LIMMA (Smyth, 2004, Statistical applications in Genetics and molecular biology, vol 3, N°1, article 3), an R package from the Bioconductor project, and processed as follow: gMedianSignal data were imported, controls probes were systematically removed, and flagged probes (gisSaturated, glsFeatpopnOL, glsFeatNonUnifOL) were set to NA. […] Normalized data were then analyzed. […]

[9] = test system: SARS-CoV-2; details: reference 50; cited from earlier work
[10] = test system: COVID-19 patients with severe inflammatory failure; details: early administration; retrospective study, reference 51; cited from earlier work

O=c1c(O)c(-c2ccc(O)cc2)oc2cc(O)cc(O)c12 [Kaempferol]
IL-1β release [1]: increased IL-1β release | LDH release (cell death marker) [2]: released the cell death marker, lactate dehydrogenase (LDH) | expression of IRF5 [3]: increased expression of the pro-inflammatory transcription factor IFN regulatory factor 5 (IRF5) | secretion of IL-10 [4]: reduced secretion of the immunosuppressive cytokine interleukin-10 (IL-10) | membrane expression of CD163 [5]: diminished membrane expression of anti-inflammatory macrophage activation marker CD163 | secretion of IL-10 [6]: reduced secretion of the immunosuppressive cytokine interleukin-10 (IL-10) | IL-1β release [7]: increased IL-1β release | known human markers of macrophage activation induced [8]: 90%

Ivermectin
replication of SARS-CoV-2 in vitro [9]: inhibit the replication of SARS-CoV-2 in vitro

anakinra: IL-1 receptor antagonist
prognosis of COVID-19 patients [10]: significantly improved prognosis of COVID-19 patients with severe inflammatory failure
